In patent publication US20250223268A1, “4-Methylsulfonylbenzamide Compound, Preparation Method, Herbicidal Composition And Use” (Jiangsu Flag Chemical Industry Co., Ltd., priority 2022, published 2025):

Assays:
Format in all cases: in vivo
[1] = tested on: Echinochloa crusgalli; assay: Greenhouse herbicidal activity and crop safety comparison (Test Example 2)
Excerpt: (§1) Pre-emergence: Seeds of gramineous weeds (Echinochloa crusgalli, Echinochloa crusgalli var. zelayensis, Echinochloa phyllopogon, Eleusine indica, Digitaria sanguinalis, Leptochloa chinensis, Setaria viridis, Alopecurus japonicus Steud, Beckmannia syzigachne, Polypogon fugax, Alopecurus aequalis, Lolium multiflorum, Poa annua, Aegilops tataschii, Avena fatua, Alopecurus myosuroides, Bromus japonicus), broadleaf weeds (Eclipta prostrata, Amaranthus retroflexus, Rorippa indica, Myosoton aquaticum, Veronica didyma, Galium aparine, Solanum nigrum, Xanthium sibiricum, Conyza canadensis, Sesbania cannabina, Sagittaria trifolia), and Cyperus iria (Cyperus iria, Scirpus juncoides, Cyperus difformis, etc.) were sown in plastic pots (7 cm diameter) with nutrient soil and bottom holes. Crop seeds (including Oryza sativa subsp. indica, Oryza sativa subsp. japonica, Oryza sativa L. var. Glutinosa matsum, Triticum aestivum, Zea mays, Sorghum bicolor, Setaria italica, Glycine max, Gossypium hirsutum, Brassica napus, Arachis hypogaea) were sown in plastic pots (10 cm diameter) with nutrient soil and bottom holes. After sowing, the seeds were lightly covered with soil, and the soil was moistened via bottom water absorption. The pots were placed in a constant-temperature light-controlled growth chamber for 24 hours before soil spraying. Spraying was performed using a 3WP-2000 walking-type spray tower (produced by the Nanjing Agricultural Mechanization Institute, Ministry of Agriculture) with a spindle speed of 96 mm/r, spray height of 300 mm, effective spray width of 350 mm, spray area of 0.35 m^2, and nozzle flow rate of 390 mL/min.
(§2) After treatment, the test materials were air-dried naturally in the laboratory and then transferred to the growth chamber. Results were assessed 14-30 days later.
(§3) Post-emergence: Seeds of gramineous weeds (Echinochloa crusgalli, Echinochloa crusgalli var. zelayensis, Echinochloa phyllopogon, Eleusine indica, Digitaria sanguinalis, Leptochloa chinensis, Setaria viridis, Alopecurus japonicus Steud, Beckmannia syzigachne, Polypogon fugax, Alopecurus aequalis, Lolium multiflorum, Poa annua, Aegilops tataschii, Avena fatua, Alopecurus myosuroides, Bromus japonicus), broadleaf weeds (Eclipta prostrata, Amaranthus retroflexus, Rorippa indica, Myosoton aquaticum, Veronica didyma, Galium aparine, Solanum nigrum, Xanthium sibiricum, Conyza canadensis, Sesbania cannabina, Sagittaria trifolia), and Cyperus iria (Cyperus iria, Scirpus juncoides, Cyperus difformis, etc.) were sown in plastic pots (7 cm diameter) with nutrient soil and bottom holes. Crop seeds (including Oryza sativa subsp. indica, Oryza sativa subsp. japonica, Oryza sativa L. var. Glutinosa matsum, Triticum aestivum, Zea mays, Sorghum bicolor, Setaria italica, Glycine max, Gossypium hirsutum, Brassica napus, Arachis hypogaea) were sown in plastic pots (10 cm diameter) with nutrient soil and bottom holes. After sowing, the pots were placed in the growth chamber until the plants reached the 3-6 leaf stage for foliar spraying. Post-treatment, the materials were air-dried naturally and returned to the growth chamber. Results were assessed 14-21 days later.
(§4) • A: Fresh weight inhibition rate≥80% to 100%; • B: Fresh weight inhibition rate[…] to <80%; • C: Fresh weight inhibition rate≥40% to <60%; • D: Fresh weight inhibition rate≥20% to <40%; • E: Fresh weight inhibition rate<20%; • NT: Not tested.
(§5) Using the above method, the herbicidal activity and crop safety of the present compounds were compared with structurally similar known compounds (CK1, CK2, CK3, CK4: compounds 4-756, 4-759, 1-557, 1-563 from WO2012028579A1; CK5: compound 290-1 from WO2013087577A1; CK6: compound 1-129 from WO2011035874A1).

[2] = tested on: Oryza sativa subsp. indica; assay: as above
Excerpt: as §1, §2, §3, §4, §5

[3] = tested on: Oryza sativa subsp. japonica; assay: as above
Excerpt: as §1, §2, §3, §4, §5

[4] = tested on: Echinochloa crusgalli; assay: Greenhouse herbicidal activity assay, post-emergence; conditions: Post-emergence test, rate 150 g a.i./hm^2, grade by fresh weight inhibition rate
Method in brief: (§6)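 Weeds and crops grown in pots of nutrient soil in a growth chamber to the 3-6 leaf stage, then foliar-sprayed and air-dried. Fresh weight inhibition scored 14-21 days after treatment and graded A (≥80%) through E (<20%).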

[5] = tested on: Digitaria sanguinalis; assay: as above; conditions: Post-emergence test, rate 150 g a.i./hm^2; grade by fresh weight inhibition rate
Method in brief: as §6

[6] = tested on: Leptochloa chinensis; assay: as above; conditions: Post-emergence test, rate 150 g a.i./hm^2; grade by fresh weight inhibition rate
Method in brief: as §6

[7] = tested on: Cyperus iria; assay: as above; conditions: Post-emergence test, rate 150 g a.i./hm^2; grade by fresh weight inhibition rate
Method in brief: as §6

[8] = tested on: Eclipta prostrata; assay: as above; conditions: Post-emergence test, rate 150 g a.i./hm^2; grade by fresh weight inhibition rate
Method in brief: as §6

| Compound | Echinochloa crusgalli, control efficacy grading (fresh weight inhibition rate) ([1]; Rate 150 g/ha) | Oryza sativa subsp. indica, grading of fresh weight inhibition rate (crop safety) ([2]; Rate 150 g/ha) | Oryza sativa subsp. japonica, grading of fresh weight inhibition rate (crop safety) ([3]; Rate 150 g/ha) | Control efficacy grade, Echinochloa crusgalli [4] | Control efficacy grade, Digitaria sanguinalis [5] | Control efficacy grade, Leptochloa chinensis [6] | Control efficacy grade, Cyperus iria [7] | Control efficacy grade, Eclipta prostrata [8] | Echinochloa crusgalli, control efficacy grading (fresh weight inhibition rate) ([1]; Rate 75 g/ha) | Oryza sativa subsp. indica, grading of fresh weight inhibition rate (crop safety) ([2]; Rate 75 g/ha) | Oryza sativa subsp. japonica, grading of fresh weight inhibition rate (crop safety) ([3]; Rate 75 g/ha) | Echinochloa crusgalli, control efficacy grading (fresh weight inhibition rate) ([1]; Rate 250 g/ha) | Oryza sativa subsp. indica, grading of fresh weight inhibition rate (crop safety) ([2]; Rate 250 g/ha) | Oryza sativa subsp. japonica, grading of fresh weight inhibition rate (crop safety) ([3]; Rate 250 g/ha) | inhibition at 75 g/ha ([1]; Echinochloa crus-galli, Rate 75 g/ha, read-out: Echinochloa crusgalli, control efficacy grading (fresh weight inhibition rate)) [%] | inhibition at 150 g/ha ([1]; Echinochloa crus-galli, Rate 150 g/ha, read-out: Echinochloa crusgalli, control efficacy grading (fresh weight inhibition rate)) [%] | pest or weed control at 150 g/ha ([4]; Echinochloa crus-galli, read-out: Control efficacy grade, Echinochloa crusgalli) [%] |
| --- | --- | --- | --- | --- | --- | --- | --- | --- | --- | --- | --- | --- | --- | --- | --- | --- | --- |
| CCC(C)S(=O)(=O)c1c(S(C)(=O)=O)ccc(C(=O)Nc2nnnn2C)c1Cl (racemic) [Compound 1-24] | A (Fresh weight inhibition rate≥80% to 100%) | E (Fresh weight inhibition rate<20%) | E (Fresh weight inhibition rate<20%) | A (Fresh weight inhibition rate≥80% to 100%) | B (Fresh weight inhibition rate≥260% to <80%) | A (Fresh weight inhibition rate≥80% to 100%) | A (Fresh weight inhibition rate≥80% to 100%) | A (Fresh weight inhibition rate≥80% to 100%) |  |  |  |  |  |  |  |  |  |
| CC(C)S(=O)(=O)c1c(S(C)(=O)=O)ccc(C(=O)Nc2nnnn2C)c1Cl [Compound 1-10] | A (Fresh weight inhibition rate≥80% to 100%) | E (Fresh weight inhibition rate<20%) | E (Fresh weight inhibition rate<20%) | A (Fresh weight inhibition rate≥80% to 100%) | A (Fresh weight inhibition rate≥80% to 100%) | A (Fresh weight inhibition rate≥80% to 100%) | A (Fresh weight inhibition rate≥80% to 100%) | A (Fresh weight inhibition rate≥80% to 100%) |  |  |  |  |  |  |  |  |  |
| CCC[S+]([O-])c1c(S(C)(=O)=O)ccc(C(=O)N(C)c2nnc(C)o2)c1Cl (single isomer, unassigned) [Compound 3-788] | A (Fresh weight inhibition rate≥80% to 100%) | E (Fresh weight inhibition rate<20%) | E (Fresh weight inhibition rate<20%) | A (Fresh weight inhibition rate≥80% to 100%) |  | A (Fresh weight inhibition rate≥80% to 100%) |  |  | A (Fresh weight inhibition rate≥80% to 100%) | E (Fresh weight inhibition rate<20%) | E (Fresh weight inhibition rate<20%) |  |  |  |  |  |  |
| Cn1nnnc1NC(=O)c1ccc(S(C)(=O)=O)c(S(=O)(=O)C2CC2)c1Cl [Compound 1-36] | A (Fresh weight inhibition rate≥80% to 100%) | E (Fresh weight inhibition rate<20%) | E (Fresh weight inhibition rate<20%) | A (Fresh weight inhibition rate≥80% to 100%) | A (Fresh weight inhibition rate≥80% to 100%) | A (Fresh weight inhibition rate≥80% to 100%) | A (Fresh weight inhibition rate≥80% to 100%) | A (Fresh weight inhibition rate≥80% to 100%) |  |  |  |  |  |  |  |  |  |
| Cn1nnnc1NC(=O)c1ccc(S(C)(=O)=O)c(S(=O)(=O)CC2CC2)c1Cl [Compound 1-31] | A (Fresh weight inhibition rate≥80% to 100%) | E (Fresh weight inhibition rate<20%) | E (Fresh weight inhibition rate<20%) | A (Fresh weight inhibition rate≥80% to 100%) | A (Fresh weight inhibition rate≥80% to 100%) | A (Fresh weight inhibition rate≥80% to 100%) | A (Fresh weight inhibition rate≥80% to 100%) | A (Fresh weight inhibition rate≥80% to 100%) |  |  |  |  |  |  |  |  |  |
| C=CCS(=O)(=O)c1c(S(C)(=O)=O)ccc(C(=O)Nc2nnnn2C)c1Cl [Compound 1-71] |  |  |  | A (Fresh weight inhibition rate≥80% to 100%) | A (Fresh weight inhibition rate≥80% to 100%) | A (Fresh weight inhibition rate≥80% to 100%) | A (Fresh weight inhibition rate≥80% to 100%) | A (Fresh weight inhibition rate≥80% to 100%) |  |  |  | A (Fresh weight inhibition rate≥80% to 100%) | E (Fresh weight inhibition rate<20%) | E (Fresh weight inhibition rate<20%) |  |  |  |
| CCC[S+]([O-])c1c(S(C)(=O)=O)ccc(C(=O)N(C)c2nnc(C)o2)c1Cl (racemic) [Compound 3-787, 2-chloro-N-methyl-N-(5-methyl-1,3,4-oxadiazol-2-yl)-4-(methylsulfonyl)-3-(propylsulfinyl)benzamide] |  | E (Fresh weight inhibition rate<20%) | E (Fresh weight inhibition rate<20%) |  |  |  |  |  |  | E (Fresh weight inhibition rate<20%) | E (Fresh weight inhibition rate<20%) |  |  |  | 80 to 100 | 80 to 100 | 80 to 100 |
| CCC[S+]([O-])c1c(S(C)(=O)=O)ccc(C(=O)N(C)c2nnco2)c1Cl (racemic) [Compound 3-795] | A (Fresh weight inhibition rate≥80% to 100%) | E (Fresh weight inhibition rate<20%) | E (Fresh weight inhibition rate<20%) | A (Fresh weight inhibition rate≥80% to 100%) |  |  |  |  |  |  |  |  |  |  |  |  |  |
| Cn1nnnc1NC(=O)c1ccc(S(C)(=O)=O)c(S(=O)(=O)C2CCCC2)c1Cl [Compound 1-46] | A (Fresh weight inhibition rate≥80% to 100%) | E (Fresh weight inhibition rate<20%) | E (Fresh weight inhibition rate<20%) | A (Fresh weight inhibition rate≥80% to 100%) |  |  | A (Fresh weight inhibition rate≥80% to 100%) | A (Fresh weight inhibition rate≥80% to 100%) |  |  |  |  |  |  |  |  |  |
| Cn1nnnc1NC(=O)c1ccc(S(C)(=O)=O)c(S(=O)(=O)C2CCC2)c1Cl [Compound 1-41] | A (Fresh weight inhibition rate≥80% to 100%) | E (Fresh weight inhibition rate<20%) | E (Fresh weight inhibition rate<20%) | A (Fresh weight inhibition rate≥80% to 100%) |  | A (Fresh weight inhibition rate≥80% to 100%) | A (Fresh weight inhibition rate≥80% to 100%) | A (Fresh weight inhibition rate≥80% to 100%) |  |  |  |  |  |  |  |  |  |
